# In patent US10005844B2, “Polynucleotides encoding anti-Notch1 NRR antibody polypeptides” (Genentech, Inc., priority 2007, dated 2018):
# Assays:
# Assay type in all cases: cell-based
# Mouse C2C12 myoblasts = assay: C2C12 myoblast differentiation assay; conditions: Antibody A 200 ng/ml, Compound E 1 uM, four days, FIG. 9 and 10
# Procedure: Mouse C2C12 myoblasts differentiate into myotubes when treated with differentiation medium. Co-culture with Jagged1 ligand-expressing cells inhibits differentiation by stimulating Notch signaling.
# In particular, mouse C2C12 myoblast cells were plated in a 24-well tissue culture dish with a sterile round, 10 mm cover slip in the bottom at 2.5×10^4 cells per ml, using 1 ml per well. Cells were allowed to attach and grow for 22 hours in growth medium (DMEM with 10% FBS) at 37° C., 5% CO2. The growth medium was then aspirated and differentiation medium (DM) was added (DMEM with 6% Horse Serum). Cells were treated with: A. DM alone; B. DM with 3T3-J1 cells; C. […] Cells were incubated at 37° C., 5% CO2 under these conditions for four days. Cover slips were retrieved, and cells were fixed with 4% paraformaldehyde and permeablized with 0.2% Triton X-100 in PBS. Cells were then blocked with 10% FBS in PBS. An antibody recognizing Myosin Heavy Chain (Millipore, Anti-Myosin HC, clone A4.1025 ascites) and a goat anti-mouse IgG (H+L) secondary antibody conjugated to Alexa® 488 (Molecular Probes) was used to stain the differentiated myotubes. DAPI was used to counter-stain the nuclei. Images of three different fields were taken for each condition. Metamorph software (Molecular Devices) was used to count the number of nuclei and the area of Alexa® 488 stain. […]
# OVCAR-3 = assay: CellTiter-Glo Luminescent Cell Viability Assay, OVCAR-3; conditions: ovarian cancer cell line, FIG. 17
# From the text: (§1) The effects of anti-Notch1 NRR and the gamma secretase inhibitors DAPT and “Compound E” (CmpE) on a panel of cancer cell lines were examined. […] This assay determines the number of viable cells in culture based on quantitation of ATP present, which is an indication of metabolically active cells. Luminescence is quantified as “relative luminescent units” in FIG. 17 (y-axis).
# MT-3 = assay: CellTiter-Glo Luminescent Cell Viability Assay, MT-3; conditions: breast carcinoma line, FIG. 17
# From the text: as §1
SMILES,Differentiation of C2C12 myoblasts blocked by Jagged1 co-culture (Mouse C2C12 myoblasts),"Cell viability (ATP levels), OVCAR-3 (OVCAR-3)","Cell viability (ATP levels), MT-3 (MT-3)"
C[C@H](NC(=O)Cc1cc(F)cc(F)c1)C(=O)N[C@H]1N=C(c2ccccc2)c2ccccc2N(C)C1=O [Compound E],restored differentiation,reduced ATP levels,reduced ATP levels
"C[C@H](NC(=O)Cc1cc(F)cc(F)c1)C(=O)N[C@H](C(=O)OC(C)(C)C)c1ccccc1 [DAPT, N—[N-(3,5-difluorophenacetyl)-L-alanyl]-S-phenylglycine t-butyl ester]",,reduced ATP levels,reduced ATP levels
